One assay has as its system UbV-gfp. Put plainly: UbV-gfp reporter. As to conditions: in vivo. More on the design: species or system Caenorhabditis elegans. On the procedure:
To address how Gluconacetobacter spp feeding improves mitochondrial function, a variety of transgenic worm strains were tested, including worms that carry a construct encoding a fusion protein comprising a GFP reporter protein and a gene product that is involved in stress response, mitochondrial activity, peroxisomal function, innate immune response, and different signaling pathways (Table 1; FIGS. 2C-2K; FIGS. 6C-6L; FIGS. 7A-7D).

The test system of assay [1] is phsp-6::gfp induced by human Aβ1-42. Put plainly: phsp-6::gfp UPRmt reporter in worms with panneuronal human Aβ1-42. It is filed as in vivo, Caenorhabditis elegans. As to conditions: compound treatment.
Protocol: Thus, it is possible to screen for interventions that will reduce the UPRmt induction by modulating the Aβ aggregation or toxicity of Aβ on mitochondria.
For the screen, thirty microbial strains including the negative control bacteria E. coli OP50 were grown in appropriate culture media conditions and spotted onto standard nematode growth medium plates. ˜30 synchronized L1-larval-stage transgenic worm expressing Aβ 1-42 or tau in the pan-neurons were dropped onto the seeded plates and scored visually after 4 days under a fluorescent microscope for changes in phsp-6::gfp expression (FIG. 13).

The structures appear in SMILES notation.

In the case of `CC(C)C[C@H](NC(=O)[C@H](Cc1ccccc1)NC(=O)c1cnccn1)B(O)O` [Bortezomib], the UbV-gfp expression result with UbV-gfp is listed as “stabilizes UbV-gfp”.

As for `Cc1ccc2c(c1)sc(-c1ccc(N(C)C)cc1)[n+]2C.[Cl-]` [Thioflavin T], the “induction of UPRmt (phsp-6::gfp) in Aβ worms treated with compound” value in assay [1] is “induction of UPRmt was reduced”.

Values taken from patent US12285446B2, “Compositions and methods for improving mitochondrial function” (priority 2018, dated 2025).
